Measured values: US9643977B2, “Necroptosis inhibitors and methods of use therefor” (President and Fellows of Harvard College, priority 2011, dated 2017)
Where a SMILES comes first, the peptide text is derived from it. The star is where a group is joined. Cbz = O=C(OCc1ccccc1)*; CH2F = FC*

Key:
[1] = system: TNFα production in J774 cells; test: TNFα ELISA, J774 cells treated with zVAD.fmk (cell lysate and supernatant); format: cell-based, murine; settings: FIG. 1
Protocol: The role of RIP1 kinase in the regulation of TNFα induction was investigated. zVAD.fmk is a caspase inhibitor that induces TNFα expression in various cell types. Murine macrophage J774 cells were treated with 20 μM zVAD.fmk and 10 μM of necrostatin and RIP1 inhibitor Nec-1 for the various periods of time. Cell lysates were extracted and analyzed by TNFα specific ELISA. As depicted in FIG. 1, treatment with zVAD.fmk induces an upregulation in TNFα protein levels as measured by ELISA in the cell lysate.

[2] = system: TNFα production in BV2 cells; test: TNFα mRNA by quantitative PCR, BV2 cells treated with Aβ42; format: cell-based; settings: 10 μM, 30 minutes before Aβ42 200 nM, FIG. 10A
Protocol: (§1) The levels of TNFα mRNA were measured by quantitative PCR. B) Microglia primary cultures were incubated for 30 minutes with or without 10 μM Nec-1 prior to being treated with Aβ42 (200 nM). TNFα secretion was measured by ELISA. The data correspond to the mean±SD (N=3). C) Cell survival of microglia primary cultures treated with Aβ42 (200 nM) for indicated times with and without Nec1 was measured by CellTiter-Glo® assay. Error bars represent the mean of two different experiments.
(§2) The role played by RIP1 in the induction of TNFα production by amyloid-β in microglial cells was investigated.

[3] = system: TNFα secretion by BV-2 cells; test: TNFα ELISA, BV-2 cells pretreated with IFNγ and treated with CD40L; format: cell-based; settings: 100 U/ml IFNγ 20 hours, 0.1 μg/ml CD40L 4 or 8 hours, FIG. 13B
Protocol: (§3) A, L929 cells were treated with 0.2 μg/ml CD40L, 100 U/ml IFNγ, and/or 1 μg/ml TNFα neutralizing antibody and then treated with 10 μM Nec-1 (right bar) or a DMSO control (left bar) for 24 hours. Viability was measure by ATP luminescence assay. B, BV-2 cells were pretreated with 100 U/ml IFNγ for 20 hours, and treated with 0.1 μg/ml CD40L for 4 or 8 hours. TNFα secretion was measured by ELISA.
To confirm the role of RIP1 in CD40L-induced TNFα production, BV-2 cells were pretreated with IFNγ and CD40L to induce TNFα production and then exposed to Nec-1.

[4] = system: TNFα secretion by microglia primary cultures; test: TNFα ELISA, microglia primary cultures treated with Aβ42; format: cell-based; settings: 10 μM, 30 minutes before Aβ42 200 nM, FIG. 10B
Protocol: as §1, §2

[5] = system: L929 cells; test: Cell survival by CellTiter-Glo, L929 cells treated with CD154 and/or IFNγ; format: cell-based; settings: 10 μM, 32 hrs, CD154 0.1 μg/ml, FIG. 5
Protocol: To test the involvement of CD40 in necroptosis, L929 cells were treated with CD154 (0.1 μg/ml), IFNγ (100 U/ml) and/or TNFα neutralizing antibody (1 μg/ml) alone or in combination and with or without Nec-1 (10 μM) for 32 hrs. Following treatment, cell survival was determined by CellTiter-Glo (Promega). As depicted in FIG. 5, the death of L929 cells induced by either the presence of either CD154 alone or by the presence of both CD154 and IFNγ was inhibited by Nec-1. Thus, RIP1 kinase selectively mediates intracellular signaling downstream of CD40 stimulation

[6] = system: L929 cells; test: Viability by ATP luminescence assay, L929 cells treated with CD40L and IFNγ; format: cell-based; settings: 10 μM, 24 hours, 0.2 μg/ml CD40L, 100 U/ml IFNγ, FIG. 13A
Protocol: as §3
The role of RIP1 in CD40L induced TNFα production was investigated.

[7] = system: microglia primary cultures; test: Cell survival by CellTiter-Glo, microglia primary cultures treated with Aβ42; format: cell-based; settings: Aβ42 200 nM, FIG. 10C
Protocol: as §1, §2

[8] = system: L929 cells; test: Cell viability by ATP assay, L929 cells treated with Smac mimetic SM-164; format: cell-based
Protocol: (§4) Smac mimetic compounds are IAP antagonists that induce the production of TNFα. Smac mimetic compounds induce the autoubiquitination and degradation of cIAP1. […] This cell death was inhibited by treatment with 10 μM Nec-1, or with 0.2 μg/ml or 1.0 μg/ml of TNFα neutralizing antibody (FIG. 2A).

[9] = system: TNFα production in J774 cells; test: TNFα ELISA, J774 cells treated with LPS; format: cell-based, murine; settings: 10 μM, J774 cells with 1 μg/ml LPS, cell lysate, FIG. 4
Protocol: (§5) In the TNFα signaling pathway, cIAP1, the target of Smac mimetic compounds, interacts closely with another protein, Traf2. L929 cells were transfected with Traf2 siRNA, treated with 10 μM Nec-1 or 1.0 μg/ml anti-TNFα antibody for 48 hours and cell viability measured by ATP assay. […] This death was also dependent on TNFα production, as it was inhibited by treatment with a TNFα neutralizing antibody or with knockdown of TNFR1 (FIGS. 3A and 3B). […] One such treatment is lipopolysaccharide (LPS), a component of the bacterial outer membrane. […] However, treatment of such cells with 10 μM Nec-1 has no effect on TNFα production in this case (FIG. 4).

[10] = system: TNFα secretion by splenic macrophages; test: TNFα ELISA, splenic macrophages stimulated by CD154 and IFNγ; format: cell-based, C57BL/6 mouse; settings: 10 μM, pretreated 1 hour, then 24 hours 1 μg/ml CD154 and 100 U/ml IFNγ, FIG. 6
Protocol: To further explore the role of RIP1 kinase in mediating CD40 signaling, the effect of necrostatins on the production of TNFα by primary macrophages stimulated by CD154 was tested. Splenocytes isolated from a C57BL/6 mouse were cultured for 10 days in RPMI media with 10% FBS and 50 μM 2-mercaptoethanol. The attached cells were harvested as splenic macrophages. The macrophages were pretreated for 1 hour with 10 μ[…] Nec-1, 10 μM Nec-21, 10 μM Nec-29, or 1 μM Nec-12, then treated for 24 hours with 1 μg/ml recombinant CD154 (CD40L, R&D Systems) and/or 100 U/ml IFNγ as. TNFα secretion in the cell culture supernatant was analyzed by ELISA assay. As depicted in FIG. 6, the production of TNFα in splenic macrophages stimulated by CD154 in the presence of IFNγ was inhibited by Nec-1 as well as by the three other necrostatins tested, Nec-12, Nec-21 and Nec-29. These experiments indicate that RIP1 is involved in mediating TNFα production downstream of CD40 activation.

[11] = system: L929 cells; test: Cell viability by ATP assay, L929 cells transfected with Traf2 siRNA; format: cell-based; settings: 10 μM, 48 hours, FIG. 3A
Protocol: as §5

[12] = system: TNFα production in L929 cells; test: TNFα ELISA on cell lysates, L929 cells treated with SM-164; format: cell-based
Protocol: as §4

## COC(=O)C[C@H](NC(=O)[C@H](C)NC(=O)[C@@H](NC(=O)OCc1ccccc1)C(C)C)C(=O)CF [zVAD.fmk, reference compound] (Cbz-Val-Ala-Asp(OMe)-CH2F)
[1]; 20 μM zVAD.fmk, ELISA in cell lysate
  TNFα protein levels after treatment: upregulation

## CN1C(=O)C(Cc2c[nH]c3ccccc23)NC1=S (stereo not shown) [Nec-1]
[2]
  levels of TNFα (mRNA) after Aβ42 exposure: reduced levels of TNFα
[3]
  inhibition of CD40L-induced TNFα production: significantly inhibited
[4]
  levels of TNFα (secretion) after Aβ42 exposure: reduced levels of TNFα
[5]
  inhibition of cell death induced by CD154 alone: inhibited
[5]; IFNγ 100 U/ml
  inhibition of cell death induced by both CD154 and IFNγ: inhibited
[6]
  viability of cells cultured in IFNγ and CD40L: largely restored
[7]
  effect on survival of microglia primary cells: minor protective effect
[1]; 10 μM co-treatment with 20 μM zVAD.fmk
  inhibition of zVAD.fmk-induced production of TNFα: almost completely inhibits
[8]; 10 μM, L929 cells with 100 nM SM-164, FIG. 2A
  inhibition of SM-164-induced cell death: inhibited
[9]
  effect on LPS-induced TNFα production: no effect
[10]
  inhibition of TNFα production stimulated by CD154 in the presence of IFNγ: inhibited
[11]
  inhibition of cell death induced by loss of Traf2: completely inhibit
[12]; co-treatment, FIG. 2B
  inhibition of SM-164-induced TNFα production: completely inhibited

## CN[C@@H](C)C(=O)N[C@H]1CCCC[C@H]2CC[C@@H](C(=O)N[C@@H](c3ccccc3)c3cn(CCCCc4ccc(CCCCn5cc([C@@H](NC(=O)[C@@H]6CC[C@@H]7CCCC[C@H](NC(=O)[C@H](C)NC)C(=O)N76)c6ccccc6)nn5)cc4)nn3)N2C1=O [SM-164, reference compound]
[8]; 100 nM, L929 cells, ATP assay
  cell death induced by treatment: undergo cell death
[12]; SM-164 treatment, ELISA on cell lysates
  TNFα production after treatment: induced an increase
